How the values were obtained:
BaF3 [1] = experiment: Antiproliferative activity against mouse BaF3 cells harbouring VEGFR2 assessed as inhibition of cell growth measured after 3 days by celltiter-glo luminescent cell viability assay; type: functional, cell-based; settings: BaF3, 72 h
BaF3 [2] = experiment: Antiproliferative activity against mouse BaF3 cells harbouring FLT3-ITD assessed as inhibition of cell growth measured after 3 days by celltiter-glo luminescent cell viability assay; type: functional, cell-based; settings: BaF3, 72 h
BaF3 [3] = experiment: Antiproliferative activity against wild type mouse BaF3 cells assessed as inhibition of cell growth measured after 3 days by celltiter-glo luminescent cell viability assay; type: functional, cell-based; settings: BaF3, 72 h
MOLM-13 [4] = experiment: Antitumor activity against human MOLM-13 xenografted in male nude mouse assessed as tumor growth inhibition at 20 mg/kg, po administered once daily for 14 days by vernier caliper method relative to control; type: functional; settings: MOLM-13, 336 h, time 14 day, read-out: TGI
MOLM-13 [5] = experiment: Induction of cell cycle arrest in human MOLM-13 cells assessed as accumulation of cells at G2 phase at 0.1 uM incubated for 48 hrs (reference value: […]); type: functional
MOLM-13 [6] = experiment: Induction of cell cycle arrest in human MOLM-13 cells assessed as accumulation of cells at G1 phase at 0.1 uM incubated for 48 hrs (reference value: 40.3%); type: functional
MOLM-13 [7] = experiment: Induction of cell cycle arrest in human MOLM-13 cells assessed as accumulation of cells at S phase at 0.1 uM incubated for 48 hrs (reference value: 41.6%); type: functional
MOLM-13 [8] = experiment: Induction of apoptosis in human MOLM-13 cells assessed as necrotic cells at 0.1 uM incubated for 48 hrs by Annexin V-FITC/PI staining based flow cytometry analysis (reference value: 0.077%); type: functional
MOLM-13 [9] = experiment: Induction of apoptosis in human MOLM-13 cells assessed as viable cells at 0.1 uM incubated for 48 hrs by Annexin V-FITC/PI staining based flow cytometry analysis (reference value: 91.9%); type: functional; settings: read-out: Activity
MOLM-13 [10] = experiment: Induction of apoptosis in human MOLM-13 cells assessed as early apoptotic cells at 0.1 uM incubated for 48 hrs by Annexin V-FITC/PI staining based flow cytometry analysis (reference value: 4.93%); type: functional
MOLM-13 [11] = experiment: Induction of apoptosis in human MOLM-13 cells assessed as late apoptotic cells at 0.1 uM incubated for 48 hrs by Annexin V-FITC/PI staining based flow cytometry analysis (reference value: 3.10%); type: functional

SMILES | IC50 (BaF3 [1]) [nM] | IC50 (BaF3 [2]) [nM] | IC50 (BaF3 [3]) [nM] | further results
Cc1cc(=O)n(-c2ccc(F)cc2F)nc1C(=O)Nc1ccc(Oc2ccnc(NC(=O)N3CC(O)C3)c2)c(F)c1 | 1410 | 550 | > 10000 | –
CCN(CC)CCNC(=O)c1c(C)[nH]c(/C=C2\C(=O)Nc3ccc(F)cc32)c1C [SUNITINIB] | – | – | – | inhibition in vivo at 20 mg/kg (MOLM-13 [4]): 73.2%
CNC(=O)c1cc(Oc2ccc(NC(=O)Nc3ccc(Cl)c(C(F)(F)F)c3)cc2)ccn1 [SORAFENIB] | 18 | 100 | – | Activity (MOLM-13 [5]): 0%; Activity (MOLM-13 [6]): 62.9%; Activity (MOLM-13 [7]): 35.4%; Activity (MOLM-13 [8]): 0.66%; viability at 0.1 µM (MOLM-13 [9]): 25.7%; Activity (MOLM-13 [10]): 26.7%; Activity (MOLM-13 [11]): 47%
Cc1cc(=O)n(-c2ccc(C#N)cc2)nc1C(=O)Nc1ccc(Oc2ccnc(NC(=O)N3CC(O)C3)c2)c(F)c1 | – | > 10000 | > 10000 | –
COc1cc(F)ccc1-n1nc(C(=O)Nc2ccc(Oc3ccnc(NC(=O)N4CC(O)C4)c3)c(F)c2)c(C)cc1=O | 1480 | 850 | > 10000 | –
Cc1cc(=O)n(-c2cc(Cl)c(F)c(Cl)c2)nc1C(=O)Nc1ccc(Oc2ccnc(NC(=O)N3CC(O)C3)c2)c(F)c1 | 1450 | 490 | > 10000 | –
Cc1cc(-n2nc(C(=O)Nc3ccc(Oc4ccnc(NC(=O)N5CC(O)C5)c4)c(F)c3)c(C)cc2=O)ccc1F | 700 | 630 | > 10000 | –
Cc1cc(=O)n(-c2ccc(OC(F)(F)F)cc2)nc1C(=O)Nc1ccc(Oc2ccnc(NC(=O)N3CC(O)C3)c2)c(F)c1 | – | 3910 | > 10000 | –
Cc1cc(=O)n(-c2cc(F)ccc2Cl)nc1C(=O)Nc1ccc(Oc2ccnc(NC(=O)N3CC(O)C3)c2)c(F)c1 | 5320 | 1880 | > 10000 | –
Cc1cc(=O)n(-c2ccc(Br)cc2)nc1C(=O)Nc1ccc(Oc2ccnc(NC(=O)N3CC(O)C3)c2)c(F)c1 | 3070 | 1380 | > 10000 | –
Cc1cc(=O)n(-c2ccc(F)c(F)c2)nc1C(=O)Nc1ccc(Oc2ccnc(NC(=O)N3CC(O)C3)c2)c(F)c1 | 580 | 470 | > 10000 | –
Cc1cc(=O)n(-c2ccccc2F)nc1C(=O)Nc1ccc(Oc2ccnc(NC(=O)N3CC(O)C3)c2)c(F)c1 | 850 | 670 | > 10000 | –
Cc1cc(=O)n(-c2cc(Cl)ccc2F)nc1C(=O)Nc1ccc(Oc2ccnc(NC(=O)N3CCC(C)CC3)c2)c(F)c1 | 5510 | 4160 | > 10000 | –
Cc1cc(=O)n(-c2cc(Cl)ccc2F)nc1C(=O)Nc1ccc(Oc2ccnc(NC(=O)N3CCC(N4CCN(C)CC4)CC3)c2)c(F)c1 | 1190 | 800 | 8500 | –
Cc1cc(=O)n(-c2ccc(Cl)c(F)c2)nc1C(=O)Nc1ccc(Oc2ccnc(NC(=O)N3CC(O)C3)c2)c(F)c1 | 790 | 560 | > 10000 | –
Cc1cc(=O)n(-c2cc(Cl)ccc2F)nc1C(=O)Nc1ccc(Oc2ccnc(NC(=O)N3CCC(C)(O)C3)c2)c(F)c1 (stereo not given) | 1010 | 610 | 7800 | –
COC1CCN(C(=O)Nc2cc(Oc3ccc(NC(=O)c4nn(-c5cc(Cl)ccc5F)c(=O)cc4C)cc3F)ccn2)C1 (stereo not given) | 1120 | 520 | > 10000 | –
Cc1cc(=O)n(-c2cc(Cl)ccc2F)nc1C(=O)Nc1ccc(Oc2ccnc(NC(=O)NC3CCOCC3)c2)c(F)c1 | 2050 | 6300 | > 10000 | –

SMILES | IC50 (BaF3 [1]) [nM] | IC50 (BaF3 [2]) [nM] | IC50 (BaF3 [3]) [nM] | further results
Cc1cc(=O)n(-c2ccccc2)nc1C(=O)Nc1ccc(Oc2ccnc(NC(=O)N3CC(O)C3)c2)c(F)c1 | 1160 | 700 | > 10000 | –
Cc1cc(=O)n(-c2ccc(S(C)(=O)=O)cc2)nc1C(=O)Nc1ccc(Oc2ccnc(NC(=O)N3CC(O)C3)c2)c(F)c1 | – | > 10000 | > 10000 | –
Cc1cc(=O)n(-c2cc(Cl)ccc2F)nc1C(=O)Nc1ccc(Oc2ccnc(NC(=O)NC3CC3)c2)c(F)c1 | 5020 | 7810 | > 10000 | –
COc1cc2nccc(Oc3ccc(NC(=O)N/N=C/c4cn(-c5ccccc5OC)nn4)cc3)c2cc1OC | 8070 | 5820 | – | –
Cc1cc(=O)n(-c2cc(Cl)ccc2F)nc1C(=O)Nc1ccc(Oc2ccnc(NC(=O)N3CCC(C(C)(C)O)CC3)c2)c(F)c1 | 2440 | 1670 | > 10000 | –
Cc1ccc(-n2nc(C(=O)Nc3ccc(Oc4ccnc(NC(=O)N5CC(O)C5)c4)c(F)c3)c(C)cc2=O)cc1 | 2010 | 1520 | > 10000 | –
Cc1cc(=O)n(-c2ccc(F)cc2)nc1C(=O)Nc1ccc(Oc2ccnc(NC(=O)N3CC(O)C3)c2)c(F)c1 | 770 | 490 | > 10000 | –
Cc1cc(F)ccc1-n1nc(C(=O)Nc2ccc(Oc3ccnc(NC(=O)N4CC(O)C4)c3)c(F)c2)c(C)cc1=O | 1250 | 770 | > 10000 | –
Cc1cc(=O)n(-c2ccccc2Cl)nc1C(=O)Nc1ccc(Oc2ccnc(NC(=O)N3CC(O)C3)c2)c(F)c1 | 2960 | 1870 | > 10000 | –
Cc1cc(=O)n(-c2cc(Cl)ccc2F)nc1C(=O)Nc1ccc(Oc2ccnc(NC(=O)N3CCC(O)C3)c2)c(F)c1 (stereo not given) | 1290 | 600 | > 10000 | –
Cc1cc(=O)n(-c2ccc(C(F)(F)F)cc2)nc1C(=O)Nc1ccc(Oc2ccnc(NC(=O)N3CC(O)C3)c2)c(F)c1 | 1720 | 990 | > 10000 | –
Cc1cc(=O)n(-c2ccc(F)c(Cl)c2)nc1C(=O)Nc1ccc(Oc2ccnc(NC(=O)N3CC(O)C3)c2)c(F)c1 | 540 | 400 | > 10000 | –
COc1ccc(-n2nc(C(=O)Nc3ccc(Oc4ccnc(NC(=O)N5CC(O)C5)c4)c(F)c3)c(C)cc2=O)cc1 | 4210 | 1130 | > 10000 | –
CCc1nc(C(N)=O)c(Nc2ccc(N3CCC(N4CCN(C)CC4)CC3)c(OC)c2)nc1NC1CCOCC1 [GILTERITINIB] | – | 130 | – | –
Cc1cc(=O)n(-c2ccc(I)cc2)nc1C(=O)Nc1ccc(Oc2ccnc(NC(=O)N3CC(O)C3)c2)c(F)c1 | – | 4300 | > 10000 | –
Cc1cc(=O)n(-c2cc(F)cc(Cl)c2)nc1C(=O)Nc1ccc(Oc2ccnc(NC(=O)N3CC(O)C3)c2)c(F)c1 | 1040 | 730 | > 10000 | –
Cc1cc(=O)n(-c2ccc(Cl)cc2)nc1C(=O)Nc1ccc(Oc2ccnc(NC(=O)N3CC(O)C3)c2)c(F)c1 | 720 | 610 | > 10000 | –
Cc1cc(=O)n(-c2cccc(Cl)c2)nc1C(=O)Nc1ccc(Oc2ccnc(NC(=O)N3CC(O)C3)c2)c(F)c1 | 440 | 350 | 9200 | –

Reference: ChEMBL document CHEMBL6109114, “Design, synthesis, and biological evaluation of 4-(2-fluorophenoxy)pyridine derivatives as novel FLT3-ITD inhibitors” (Eur J Med Chem, 2025)
